For two compounds, Km results are on record in article PMC5575463, “The amino‐terminal tail of Hxt11 confers membrane stability to the Hxt2 sugar transporter and improves xylose fermentation in the presence of acetic acid” (Biotechnology and Bioengineering, 2017).

Each structure is given as a SMILES string. Like-named read-outs stand apart in the source and are kept apart here.

Experiment [1] relates to T1, Chimeric Hxt11/2.
T1 construct: single-chain fusion: Hxt11 residues 1-54 replace Hxt2 residues 1-49, rest is Hxt2; untagged, pRS313-P7T7; expressed in S. cerevisiae DS68625 (hxt1-7, gal2 deleted)
The experiment can be described thus: […] sugar uptake by yeast cells, filtration. Type of experiment: cell-based, Saccharomyces cerevisiae. The settings on record: labelled compound, mineral medium, strain DS68625.

In experiment [2] the test system is T1, Chimeric Hxt11/2. Put plainly: […] sugar uptake by yeast cells, filtration. Format: cell-based, Saccharomyces cerevisiae. Particulars: labelled compound; 0.5-500 mM xylose, 1 min uptake, mineral medium, strain DS68625; Hxt2 numbering; read-out: K m (mM) / Xylose.

`OC[C@H]1OC(O)[C@H](O)[C@@H](O)[C@@H]1O` (stereo partly drawn) [D-glucose]: the Km in the experiment on Chimeric Hxt11/2 [1] (0.1-500 mM glucose, 15 s uptake, read-out: K m (mM) / Glucose) was 17.4 ± 3.8 mM.
For the compound `OC1OC[C@@H](O)[C@H](O)[C@H]1O` (stereo partly drawn) [D-xylose], the Km with Chimeric Hxt11/2 [2] is 57.3 ± 5.2 mM; in the experiment with Chimeric Hxt11/2 [1] (0.5-500 mM xylose, 1 min uptake, read-out: K m (mM) / Xylose), 69 ± 9.1 mM.
